Data published in patent US10759783B2, “Biaryl inhibitors of Bruton'S tyrosine kinase” (BIOGEN MA INC., priority 2013, dated 2020).
Like-named read-outs stand apart in the source and are kept apart here.

Columns and labels:
BTK enzyme = target: T1, BTK enzyme (Homo sapiens, UniProt Q06187); assay: In vitro BTK kinase assay: BTK-POLYGAT-LS assay; assay type: biochemical; settings: ATP 10 μM, read-out: IC50 (10uMATP)
T1 construct: purchased Upstate 14-552
How it was run: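 Human BTK activity was measured with final 10 μM ATP and 100 nM polyGAT substrate in pH 7.5 Tris buffer with 10 mM MgCl2, DTT, Triton X-100 and casein.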

[1] = target: BTK (phospho-BTK) in human whole blood (Homo sapiens, UniProt Q06187); assay: In vitro PD assay in human whole blood (pBTK assay)
Chain of BTK (phospho-BTK) in human whole blood (Q06187 whole entry): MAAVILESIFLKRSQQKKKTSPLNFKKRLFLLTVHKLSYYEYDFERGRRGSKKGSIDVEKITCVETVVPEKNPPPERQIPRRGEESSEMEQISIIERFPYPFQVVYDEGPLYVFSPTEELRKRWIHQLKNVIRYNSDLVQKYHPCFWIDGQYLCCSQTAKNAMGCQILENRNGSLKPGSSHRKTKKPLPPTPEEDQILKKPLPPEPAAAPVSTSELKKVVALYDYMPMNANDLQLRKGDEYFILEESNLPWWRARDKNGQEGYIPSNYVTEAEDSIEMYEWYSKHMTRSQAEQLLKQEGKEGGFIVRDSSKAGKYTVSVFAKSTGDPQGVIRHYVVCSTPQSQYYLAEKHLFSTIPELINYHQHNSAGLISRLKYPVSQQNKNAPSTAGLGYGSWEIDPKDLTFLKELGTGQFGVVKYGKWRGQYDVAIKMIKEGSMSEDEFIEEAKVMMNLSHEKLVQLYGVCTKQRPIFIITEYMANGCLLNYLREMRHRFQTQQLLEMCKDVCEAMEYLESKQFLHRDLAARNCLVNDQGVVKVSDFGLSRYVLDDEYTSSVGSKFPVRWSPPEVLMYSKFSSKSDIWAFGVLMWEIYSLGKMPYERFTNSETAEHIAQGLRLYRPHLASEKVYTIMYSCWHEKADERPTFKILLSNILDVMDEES

T1 sequence (Q06187 whole entry): as above

Q: How did the IC50 (BTK enzyme) turn out when `CC(C)(C)C1CCN(C(=O)NCc2ccc(-c3ccnc(Nc4cnn(C5CC5)c4)n3)cc2C(F)(F)F)C1` (stereo not shown) [Example I-296, 3-tert-butyl-N-[[4-[2-[(1-cyclopropylpyrazol-4-yl)amino]pyrimidin-4-yl]-2-(trifluoromethyl)phenyl]methyl]pyrrolidine-1-carboxamide] was run?
A: < 10 nM

Q: What about the IC50 [1] of the same compound?
A: < 500 nM

Q: What does the source list for `CCn1cc(Nc2nccc(-c3ccc(CNC(=O)N4CCC(C(C)(C)C)C4)c(C(F)(F)F)c3)n2)cn1` (stereo not shown) [Example I-297, 3-tert-butyl-N-[[4-[2-[(1-ethylpyrazol-4-yl)amino]pyrimidin-4-yl]-2-(trifluoromethyl)phenyl]methyl]pyrrolidine-1-carboxamide]?
A: IC50 (BTK enzyme): < 10 nM; IC50 [1]: < 500 nM

Q: How did the IC50 (BTK enzyme) turn out when `CN1CCC(n2cc(Nc3nccc(-c4ccc(CNC(=O)N5CCC(C(C)(C)C)C5)c(C(F)(F)F)c4)n3)cn2)CC1` (stereo not shown) [Example I-298, 3-tert-butyl-N-[[4-[2-[[1-(1-methyl-4-piperidyl)pyrazol-4-yl]amino]pyrimidin-4-yl]-2-(trifluoromethyl)phenyl]methyl]pyrrolidine-1-carboxamide] was run?
A: < 10 nM

Q: And the IC50 [1]?
A: < 500 nM

Q: Which IC50 (BTK enzyme) does the source give for `CC(C)OC1CN(C(=O)NCc2ccc(-c3ccnc(Nc4cnn(C(C)C)c4)n3)cc2C(F)(F)F)C1` [Example I-299, 3-isopropoxy-N-[[4-[2-[(1-isopropylpyrazol-4-yl)amino]pyrimidin-4-yl]-2-(trifluoromethyl)phenyl]methyl]azetidine-1-carboxamide] here?
A: < 10 nM

Q: What about the IC50 [1] of the same compound?
A: < 500 nM

Q: For `COC1CN(C(=O)NCc2ccc(-c3ccnc(Nc4cnn(C)c4)n3)cc2C)C1` [Example I-300, 3-methoxy-N-[[2-methyl-4-[2-[(1-methylpyrazol-4-yl)amino]pyrimidin-4-yl]phenyl]methyl]azetidine-1-carboxamideacid], which IC50 (BTK enzyme) is on record?
A: 10 to 99 nM

Q: And the IC50 [1]?
A: < 500 nM

Q: Which results are given for `CC(C)OC1CN(C(=O)NCc2ccc(-c3ccnc(Nc4cnn(CCO)c4)n3)cc2C(F)(F)F)C1` [Example I-301, N-[[4-[2-[[1-(2-hydroxyethyl)pyrazol-4-yl]amino]pyrimidin-4-yl]-2-(trifluoromethyl)phenyl]methyl]-3-isopropoxy-azetidine-1-carboxamide]?
A: IC50 (BTK enzyme): < 10 nM; IC50 [1]: < 500 nM

Q: What does the source list for `Cc1cc(-c2ccnc(Nc3cnn(C4CCN(C)CC4)c3)n2)ccc1CNC(=O)N1CC(OC(C)(C)C)C1` [Example I-302, 3-tert-butoxy-N-[[2-methyl-4-[2-[[1-(1-methyl-4-piperidyl)pyrazol-4-yl]amino]pyrimidin-4-yl]phenyl]methyl]azetidine-1-carboxamide]?
A: IC50 (BTK enzyme): < 10 nM; IC50 [1]: < 500 nM

Q: How did the IC50 (BTK enzyme) turn out when `COCCn1cc(Nc2nccc(-c3ccc(CNC(=O)N4CCC(C(C)(C)C)C4)c(C)c3)n2)cn1` (stereo not shown) [Example I-303, 3-tert-butyl-N-[[4-[2-[[1-(2-methoxyethyl)pyrazol-4-yl]amino]pyrimidin-4-yl]-2-methyl-phenyl]methyl]pyrrolidine-1-carboxamide] was run?
A: < 10 nM

Q: What about the IC50 [1] of the same compound?
A: < 500 nM

Q: Which IC50 (BTK enzyme) does the source give for `COCCn1cc(Nc2nccc(-c3ccc(CNC(=O)N4CC(OC(C)(C)C)C4)c(C)c3)n2)cn1` [Example I-304, 3-tert-butoxy-N-[[4-[2-[[1-(2-methoxyethyl)pyrazol-4-yl)amino]pyrimidin-4-yl]-2-methyl-phenyl]methyl]azetidine-1-carboxamide] here?
A: < 10 nM

Q: What about the IC50 [1] of the same compound?
A: < 500 nM

Q: With `CCn1cc(Nc2nccc(-c3ccc(CNC(=O)N4CCC(C(C)(C)C)C4)c(C)c3)n2)cn1` (stereo not shown) [Example I-305, 3-tert-butyl-N-[[4-[2-[(1-ethylpyrazol-4-yl)amino]pyrimidin-4-yl]-2-methyl-phenyl]methyl]pyrrolidine-1-carboxamide] as the compound, how does the IC50 (BTK enzyme) read?
A: < 10 nM

Q: And the IC50 [1]?
A: < 500 nM

Q: What does the source list for `Cc1cc(-c2ccnc(Nc3cnn(C(C)C)c3)n2)ccc1CNC(=O)N1CC(OC(C)(C)C)C1` [Example I-306, 3-tert-butoxy-N-[[4-[2-[(1-isopropylpyrazol-4-yl)amino]pyrimidin-4-yl]-2-methyl-phenyl]methyl]azetidine-1-carboxamide]?
A: IC50 (BTK enzyme): < 10 nM; IC50 ([1]; read-out: pBTK IC50, human whole blood, 37° C. for 30 min): < 500 nM

Q: What does the source list for `Cc1cc(-c2ccnc(Nc3cnn(C)c3)n2)ccc1CNC(=O)N1CC(OCCF)C1` [Example I-307, 3-(2-fluoroethoxy)-N-[[2-methyl-4-[2-[(1-methylpyrazol-4-yl)amino]pyrimidin-4-yl]phenyl]methyl]azetidine-1-carboxamide]?
A: IC50 (BTK enzyme): < 10 nM; IC50 [1]: < 500 nM

Q: For `Cc1cc(-c2ccnc(Nc3cnn(C4CC4)c3)n2)ccc1CNC(=O)N1CCC(C(C)(C)C)C1` (stereo not shown) [Example I-308, 3-tert-butyl-N-[[4-[2-[(1-cyclopropylpyrazol-4-yl)amino]pyrimidin-4-yl]-2-methyl-phenyl]methyl]pyrrolidine-1-carboxamide], which IC50 (BTK enzyme) is on record?
A: < 10 nM

Q: And the IC50 [1]?
A: < 500 nM

Q: Which IC50 (BTK enzyme) does the source give for `Cc1cc(-c2cc(Nc3cc4n(n3)CCN(C)C4)ncn2)ccc1CN1CCc2c(cnn2C(C)(C)C)C1=O` [Example I-309, 1-tert-butyl-5-[[2-methyl-4-[6-[(5-methyl-6,7-dihydro-4H-pyrazolo[1,5-a]pyrazin-2-yl)amino]pyrimidin-4-yl]phenyl]methyl]-6,7-dihydropyrazolo[4,3-c]pyridin-4-one] here?
A: < 10 nM

Q: What about the IC50 [1] of the same compound?
A: < 500 nM

Q: Which results are given for `CC(C)CN1CCN(Cc2ccc(-c3ccnc(Nc4cnn(CCO)c4)n3)cc2C(F)(F)F)C(=O)C1` [Example I-310, 1-[[4-[2-[[1-(2-hydroxyethyl)pyrazol-4-yl]amino]pyrimidin-4-yl]-2-(trifluoromethyl)phenyl]methyl]-4-isobutyl-piperazin-2-one]?
A: IC50 (BTK enzyme): < 10 nM; IC50 [1]: < 500 nM

Q: Which IC50 (BTK enzyme) does the source give for `CN1CC(n2cc(Nc3nccc(-c4ccc(CNC(=O)N5CCC(C(C)(C)C)C5)c(C(F)(F)F)c4)n3)cn2)C1` (stereo not shown) [Example I-311, 3-tert-butyl-N-[[4-[2-[[1-(1-methylazetidin-3-yl)pyrazol-4-yl]amino]pyrimidin-4-yl]-2-(trifluoromethyl)phenyl]methyl]pyrrolidine-1-carboxamide] here?
A: < 10 nM

Q: And the IC50 [1]?
A: < 500 nM

Q: Which IC50 (BTK enzyme) does the source give for `Cc1cc(-c2ccnc(Nc3cnn(C(C)(C)C(=O)NCC(F)(F)F)c3)n2)ccc1CNC(=O)N1CC(OC(C)C)C1` [Example I-312, N-[[4-[2-[[1-[1,1-dimethyl-2-oxo-2-(2,2,2-trifluoroethylamino)ethyl]pyrazol-4-yl]amino]pyrimidin-4-yl]-2-methyl-phenyl]methyl]-3-isopropoxy-azetidine-1-carboxamide] here?
A: < 10 nM

Q: What about the IC50 [1] of the same compound?
A: < 500 nM

Q: How did the IC50 (BTK enzyme) turn out when `CC(C)OC1CN(C(=O)NCc2ccc(-c3ccnc(Nc4cnn([C@H]5CCOC5)c4)n3)cc2C(F)(F)F)C1` [Example I-313, 3-isopropoxy-N[[4-[2-[[1-[(3S)-tetrahydrofuran-3-yl]pyrazol-4-yl]amino]pyrimidin-4-yl]-2-(trifluoromethyl)phenyl]methyl]azetidine-1-carboxamide] was run?
A: < 10 nM

Q: And the IC50 [1]?
A: < 500 nM

Q: What does the source list for `CC(C)OC1CN(C(=O)NCc2ccc(-c3ccnc(Nc4cnn([C@@H]5CCOC5)c4)n3)cc2C(F)(F)F)C1` [Example I-314, 3-isopropoxy-N-[[4-[2-[[1-[(3R)-tetrahydrofuran-3-yl]pyrazol-4-yl]amino]pyrimidin-4-yl]-2-(trifluoromethyl)phenyl]methyl]azetidine-1-carboxamide]?
A: IC50 (BTK enzyme): < 10 nM; IC50 [1]: < 500 nM

Q: For `Cc1cc(-c2ccnc(Nc3cnn4c3CCC4)n2)ccc1CNC(=O)c1cnc(C(C)(C)C)s1` [Example I-315, 2-tert-butyl-N-[[4-[2-(5,6-dihydro-4H-pyrrolo[1,2-b]pyrazol-3-ylamino)pyrimidin-4-yl]-2-methyl-phenyl]methyl]thiazole-5-carboxamide], which IC50 (BTK enzyme) is on record?
A: < 10 nM

Q: What about the IC50 [1] of the same compound?
A: < 500 nM

Q: What does the source list for `CC(C)(C)C1CCN(C(=O)NCc2ccc(-c3ccnc(Nc4cnn([C@H]5CCNC5)c4)n3)cc2C(F)(F)F)C1` (stereo partly drawn) [Example I-316, 3-tert-butyl-N-[[4-[2-[[1-[(3S)-pyrrolidin-3-yl]pyrazol-4-yl]amino]pyrimidin-4-yl]-2-(trifluoromethyl)phenyl]methyl]pyrrolidine-1-carboxamide]?
A: IC50 (BTK enzyme): < 10 nM; IC50 [1]: < 500 nM

Q: `COCCn1cc(Nc2nccc(-c3ccc(CNC(=O)N4CCC(C(C)C)C4)c(C(F)(F)F)c3)n2)cn1` (stereo not shown) [Example I-317, 3-isopropyl-N-[[4-[2-[[1-(2-methoxyethyl)pyrazol-4-yl]amino]pyrimidin-4-yl]-2-(trifluoromethyl)phenyl]methyl]pyrrolidine-1-carboxamide] was tested. Which IC50 (BTK enzyme) did it give?
A: < 10 nM

Q: And the IC50 [1]?
A: < 500 nM

Q: What does the source list for `CC(C)(C)C1CCN(C(=O)NCc2ccc(-c3ccnc(Nc4cnn(C5CCNC5)c4)n3)cc2C(F)(F)F)C1` [Example I-318, 3-tert-butyl-N-[8 4-[2-[[1-[(3R)-pyrrolidin-3-yl]pyrazol-4-yl]amino]pyrimidin-4-yl]-2-(trifluoromethyl)phenyl]methyl]pyrrolidine-1-carboxamide]?
A: IC50 (BTK enzyme): < 10 nM; IC50 [1]: < 500 nM

Q: Which IC50 (BTK enzyme) does the source give for `COCCc1cc(-c2ccnc(Nc3cnn(C)c3)n2)ccc1CNC(=O)N1CC(OC(C)(C)C)C1` [Example I-319, 3-tert-butoxy-N-[[2-(2-methoxyethyl)-4-[2-[(1-methylpyrazol-4-yl)amino]pyrimidin-4-yl]phenyl]methyl]azetidine-1-carboxamide] here?
A: < 10 nM

Q: And the IC50 [1]?
A: < 500 nM

Q: For `COCCc1cc(-c2ccnc(Nc3cnn(C)c3)n2)ccc1CNC(=O)N1CCC(C(C)(C)C)C1` (stereo not shown) [Example I-320, 3-tert-butyl-N-[[2-(2-methoxyethyl)-4-[2-[(1-methylpyrazol-4-yl)amino]pyrimidin-4-yl]phenyl]methyl]pyrrolidine-1-carboxamide], which IC50 (BTK enzyme) is on record?
A: < 10 nM

Q: What about the IC50 [1] of the same compound?
A: < 500 nM

Q: With `Cc1c(Nc2nccc(-c3ccc(CNC(=O)N4CCC(C(C)(C)C)C4)c(CCO)c3)n2)cnn1C` (stereo not shown) [Example I-321, 3-tert-butyl-N-[[4-[2-[(1,5-dimethylpyrazol-4-yl)amino]pyrimidin-4-yl]-2-(2-hydroxyethyl)phenyl]methyl]pyrrolidine-1-carboxamide] as the compound, how does the IC50 (BTK enzyme) read?
A: < 10 nM

Q: And the IC50 [1]?
A: < 500 nM
